This note sets out measurements from patent US9988373B2, “Nitrogen-containing six-membered cyclic derivatives and pharmaceutical composition comprising the same” (SHIONOGI & CO., LTD., priority 2013, dated 2018).

One experiment has as its target T1, human P2X7 receptor (Homo sapiens, UniProt Q99572, R270H).
T1 construct: expressed in transfected cells
T1 sequence (Q99572 1-595 R270H): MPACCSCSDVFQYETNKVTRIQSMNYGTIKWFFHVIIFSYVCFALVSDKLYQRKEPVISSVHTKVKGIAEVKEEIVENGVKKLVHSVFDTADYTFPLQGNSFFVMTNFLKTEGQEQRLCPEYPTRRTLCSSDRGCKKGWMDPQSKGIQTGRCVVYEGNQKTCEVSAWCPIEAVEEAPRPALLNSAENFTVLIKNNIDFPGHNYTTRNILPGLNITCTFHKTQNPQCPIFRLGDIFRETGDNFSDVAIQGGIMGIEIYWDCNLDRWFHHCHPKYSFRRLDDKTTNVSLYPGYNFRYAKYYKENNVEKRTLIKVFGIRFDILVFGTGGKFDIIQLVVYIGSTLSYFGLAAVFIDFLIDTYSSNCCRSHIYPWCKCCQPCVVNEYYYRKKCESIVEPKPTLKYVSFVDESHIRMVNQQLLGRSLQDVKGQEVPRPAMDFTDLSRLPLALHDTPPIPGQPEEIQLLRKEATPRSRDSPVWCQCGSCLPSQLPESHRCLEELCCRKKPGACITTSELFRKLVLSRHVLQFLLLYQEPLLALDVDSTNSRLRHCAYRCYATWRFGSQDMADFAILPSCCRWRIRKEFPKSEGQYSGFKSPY
Kind of experiment: Evaluation of a human P2X7 receptor inhibitory activity (Yo-Pro uptake, BzATP stimulation, FLIPR TETRA). The format is cell-based. Conditions: antagonistic activity for the human P2X7 receptor, 1321N1 cell transfected with the human P2X7 receptor gene, Yo-Pro fluorescence. On the procedure:
Test Example 1 Evaluation of a Human P2X7 Receptor Inhibitory Activity
Stably expressing cell line (1321N1 cell transfected with the human P2X7 receptor gene (GenBank accession number NM_002562.5 including T606C and G952A SNP)) was used. The cells were seeded in a 384-well microtiter plate at a concentration of 8000 cells/well and cultured in the medium (10% fetal bovine serum, 25 mM HEPES, 1% penicillin and streptomycin in DMEM) for one day at 37° C. under 5% carbon dioxide atmosphere. After replacing with 20 μL of the HBSS buffer (20 mM HEPES. 55.6 mM D-glucose, 1×HBSS(−), pH 7.4-7.5), 15 μL of 17.3 μM Yo-Pro solution in the HBSS buffer was added. The plate was placed in high-throughput cellular screening system FLIPR TETRA (Molecullar Devices, LLC.) and 15 μL of 130 μM BzATP solution in the HBSS buffer was added. Measurement of fluorescence intensity by FLIPR TETRA was started. After eight minutes, 15 μL of DMSO solutions containing different concentrations of the compound of the present invention as prepared by dilution with the HBSS buffer were dispensed to each well through the built-in automatic dispenser, and the measurement of fluorescence intensity was continued for 20 minutes. The maximum fluorescence intensity without the compound of the present invention is calculated as 0% inhibition and the maximum fluorescence intensity when the reference compound was added is calculated as 100% inhibition. Changing values of fluorescence intensity by the compound of the present invention were calculated by difference between maximum and minimum fluorescence intensity for 20 minutes. Inhibition ratios (%) were calculated from the following equation:
[formula] IC50 was calculated using logistic approximation.
Turning to `COc1cn(Cc2ccccc2)c(-c2cccc(C(F)(F)F)c2Cl)nc1=O` [II-008], 41 nM corresponded to half-maximal inhibition (IC50).

Staying with this experiment, now noted: antagonistic activity for the human P2X7 receptor, 1321N1 cell transfected with the human P2X7 receptor gene, Yo-Pro fluorescence, class symbols.
Molecule `O=c1ccn(Cc2ccccc2Cl)c(-c2cccc(C(F)(F)F)c2Cl)c1` [Compound I-059] displayed an IC50 of 100 to 500 nM.

`CS(=O)(=O)c1ccc(Cn2ccc(=O)cc2-c2cccc(C(F)(F)F)c2Cl)cc1` [Compound I-060]: the IC50 fell in the range of 1000 to 10000 nM.

In turn, `O=c1ccn(Cc2cccc(-c3ccccc3)c2)c(-c2cccc(C(F)(F)F)c2Cl)c1` [Compound I-061] yielded an IC50 of 1000 to 10000 nM.

With `O=c1ccn(Cc2cccc(F)c2F)c(-c2cccc(C(F)(F)F)c2Cl)c1` [Compound I-062], the IC50 was 500 to 1000 nM.

As to `NC(=O)c1ccc(Cn2ccc(=O)cc2-c2cccc(C(F)(F)F)c2Cl)cc1` [Compound I-063], the half-maximal inhibitory concentration (IC50) was in the range of 1000 to 10000 nM.

`O=c1ccn(Cc2ccc(OCc3ccccc3)cc2)c(-c2cccc(C(F)(F)F)c2Cl)c1` [Compound I-064] came in with an IC50 of 1000 to 10000 nM.

`O=c1ccn(Cc2ccon2)c(-c2cccc(C(F)(F)F)c2Cl)c1` [Compound I-065] displayed an IC50 of 1000 to 10000 nM.

In turn, `O=c1ccn(Cc2nc(C(F)(F)F)cs2)c(-c2cccc(C(F)(F)F)c2Cl)c1` [Compound I-066] showed a half-inhibitory concentration (IC50) of 1000 to 10000 nM.

As for `O=c1ccn(Cc2ccc(C(F)(F)F)o2)c(-c2cccc(C(F)(F)F)c2Cl)c1` [Compound I-067], the IC50 lay within 500 to 1000 nM.

Molecule `Cc1cc(Cn2ccc(=O)cc2-c2cccc(C(F)(F)F)c2Cl)on1` [Compound I-068] gave an IC50 of 1000 to 10000 nM.

The molecule `O=C(c1ccccc1)c1cccc(Cn2ccc(=O)cc2-c2cccc(C(F)(F)F)c2Cl)c1` [Compound I-069] came in with an IC50 of 500 to 1000 nM.

Consider `O=c1ccn(Cc2ccc(Oc3ccccc3)cc2)c(-c2cccc(C(F)(F)F)c2Cl)c1` [Compound I-070], for which the IC50 was in the range of 1000 to 10000 nM.

`COc1ccccc1Cn1ccc(=O)cc1-c1cccc(C(F)(F)F)c1Cl` [Compound I-071] came in with an IC50 of 100 to 500 nM.

Turning to `CCOc1cn(Cc2ccccc2)c(-c2cccc(C(F)(F)F)c2Cl)cc1=O` [Compound I-072], the 50% inhibitory concentration (IC50) was under 50 nM.

With `N#CCOc1cn(Cc2ccccc2)c(-c2cccc(C(F)(F)F)c2Cl)cc1=O` [Compound I-073], the IC50 was under 50 nM.

`COc1cn(Cc2ccccc2C)c(-c2cccc(C(F)(F)F)c2Cl)nc1=O` [II-001] showed an IC50 of under 50 nM.

The molecule `COc1cn(Cc2ccccc2C)c(-c2cccc3ncccc23)nc1=O` [II-002] showed an IC50 of 1000 to 10000 nM.

In the case of `Cc1ccccc1Cn1cc(Br)c(=O)nc1-c1cccc(C(F)(F)F)c1Cl` [II-003], the IC50 is under 50 nM.

Turning to `COc1cn(Cc2ccc(F)cc2)c(-c2cccc(C(F)(F)F)c2Cl)nc1=O` [II-004], the IC50 lay within 100 to 500 nM.

In the case of `COc1cn(Cc2ccccc2F)c(-c2cccc(C(F)(F)F)c2Cl)nc1=O` [II-005], the IC50 lay in the range of 50 to 100 nM.

Take `COc1cn(Cc2cccc(F)c2)c(-c2cccc(C(F)(F)F)c2Cl)nc1=O` [II-006]: the IC50 was in the range of 50 to 100 nM.

Take `COc1cn(Cc2ccc(F)cc2C)c(-c2cccc(C(F)(F)F)c2Cl)nc1=O` [II-007]: the IC50 was 50 to 100 nM.

`COc1cn(Cc2cccnc2)c(-c2cccc(C(F)(F)F)c2Cl)nc1=O` [II-009] displayed an IC50 of 100 to 500 nM.

As for `Cc1ccccc1Cn1cc(C)c(=O)nc1-c1cccc(C(F)(F)F)c1Cl` [II-010], the IC50 is under 50 nM.

For the molecule `Cc1ccccc1Cn1cc(F)c(=O)nc1-c1cccc(C(F)(F)F)c1Cl` [II-011], the IC50 is under 50 nM.

In turn, `COc1cn(Cc2ccccc2C#N)c(-c2cccc(C(F)(F)F)c2Cl)nc1=O` [II-012] gave an IC50 of 100 to 500 nM.

`COc1cn(Cc2cccc(C#N)c2)c(-c2cccc(C(F)(F)F)c2Cl)nc1=O` [II-013] came in with an IC50 of 100 to 500 nM.

Consider `COc1cn(Cc2ccc(C#N)cc2)c(-c2cccc(C(F)(F)F)c2Cl)nc1=O` [II-014], for which the IC50 is 1000 to 10000 nM.

The molecule `COc1cn(Cc2ccccc2CO)c(-c2cccc(C(F)(F)F)c2Cl)nc1=O` [II-015] had an IC50 of under 50 nM.

Take `COc1cn(Cc2ccc(C)cc2)c(-c2cccc(C(F)(F)F)c2Cl)nc1=O` [II-016]: the IC50 was 500 to 1000 nM.
